66 molecules from PubChem BioAssay AID179 (DTP/NCI, 2004) can be followed below.

As usually defined, the EC50 is the concentration that produces a half-maximal response. Broadly, the IC50 is the concentration needed to halve the response being measured.

The source made the active and inactive calls.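 The calls were made as follows: active = compounds giving half or more protection of infected cells from virus-caused growth loss, again on retest; inactive = the rest.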 Where a SMILES comes first, the peptide text is derived from it. [ ]: non-standard residue; d: D form. The star is where a group is joined. ξ: configuration not given here. NMeN = CN[C@@H](CC(N)=O)C(=O)O; NMeV = CN[C@H](C(=O)O)C(C)C; ξNMeV = CNC(C(=O)O)C(C)C; Boc = CC(C)(C)OC(=O)*; ξNMeA = CNC(C)C(=O)O Some results are limits rather than exact numbers.

The test system of the assay is CEM cells HIV-1 protection, formazan growth assay. Description: NCI AIDS Antiviral Assay. The conditions noted are these: for IC50: measured here: growth of uninfected CEM cells. In a few lines: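 Protection of CEM cells against HIV-1 was scored from cell growth (soluble formazan) across five concentrations, with parallel uninfected cells. Lack of protection may reflect toxicity.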

`N#CC1(Cc2ccccc2[N+](=O)[O-])c2ccccc2C2C(N1C(=O)c1ccccc1)C2(Cl)Cl` (configuration not stated): the result was inactive. For `COC1=NCc2ccccc2-c2ccccc21`, the EC50 is over 224 µM and the IC50 was found to be 123 µM. The like results for `CC(C)=CC[P+](c1ccccc1)(c1ccccc1)c1ccccc1` were, in that order, over 200 µM and 2.09 µM. Taken in the same sequence, the figures for `O=S1(=O)CCC(Br)c2ccccc2C1` (configuration not stated) were over 200 µM and over 200 µM. On to `OC[P+](CO)(CO)C12CC3CC(CC(C3)C1)C2`, for which the EC50 was over 200 µM and the IC50 was 41.7 µM. Take `O=C1[C@H]2ON(c3ccccc3)C(c3ccccc3Cl)[C@H]2C(=O)N1c1ccc(Cc2ccc(N3C(=O)[C@@H]4ON(c5ccccc5)C(c5ccccc5Cl)[C@@H]4C3=O)cc2)cc1` (some centres not stated): the EC50 is over 8.71 µM and the IC50 was over 8.71 µM.

Consider `CC(C)(C)OC(=O)[C@@H]1ON2O[C@H](OC3CCCC3(c3ccccc3)c3ccccc3)C[C@H]3OC(=O)[C@@H]1[C@H]32` (some centres not stated), for which the EC50 was over 200 µM and the IC50 stood at 31.6 µM. As to `CC(=O)C(=Cc1cccc(Cl)c1)C(C)=O`, the EC50 was over 162 µM and the IC50 amounted to 26.3 µM.

As to `CCOC(=O)c1ccc(NC(=S)Nc2ncccc2C)cc1`, the EC50 is over 200 µM and the half-inhibitory concentration (IC50) came to 158 µM.

Regarding `CCOC(=O)C(CCC1=NC(C)(C)CC(C)O1)C(=O)OCC` (configuration not stated), the EC50 is over 200 µM and the IC50 was over 200 µM. For the molecule `N#C/C(=C\N1C(=O)/C(=C/c2cccc([N+](=O)[O-])c2)SC1=S)c1nc2ccccc2s1`, the EC50 was over 200 µM and the IC50 is 29.5 µM.

Turning to `O=c1c2ccccc2[se]n1-c1ccccc1`, the EC50 was 1.62 µM and the IC50 is 17.8 µM. Taken in the same sequence, the figures for `Oc1cc2cccc[n+]2c2cc(Cl)ccc12` were over 200 µM and 91.2 µM. The like results for `CON(C)C(=O)C(C)NC(=O)OCc1ccccc1` (configuration not stated) were, in that order, over 933 µM and 813 µM. The like results for `COCC(=O)C1CC[C@@H]2[C@H](CC[C@]3(C)[C@@H](OC(C)=O)CC[C@@H]23)[C@H]1C(=O)OC` (some centres not stated) were, in that order, over 50.1 µM and over 50.1 µM. On to `CCN(CC)CCn1ncc2ccc3c(c(=O)c4cccnc4n3CCN(CC)CC)c21`, for which the EC50 was over 20 µM and the IC50 worked out at 0.309 µM. The like results for `C=C1CN(S(=O)(=O)c2ccc(C)cc2)CCCN(CCCC)CCCN(S(=O)(=O)c2ccc(C)cc2)C1` were, in that order, over 200 µM and 1.91 µM. Regarding `Cc1cc2c(cc1CO)N1Cc3cc(C)c(CO)cc3N(C2)C1`, the outcome was inactive. Regarding `CN1CCC2(CC1)C(=NC1CCCCC1)NC(=S)N2c1ccccc1`, the EC50 is over 100 µM and the IC50 is over 100 µM. Consider `CCCCc1ccc(-n2sc3ncc(C)cc3c2=O)cc1`, for which the EC50 was 1.23 µM and the IC50 is 21.9 µM.

For `S=C1OC2CCCC[C@H]2O1` (some centres not stated), the EC50 is over 120 µM and the IC50 is over 120 µM. For the molecule `COc1cc(/C=C2\SC(=S)N(/C=C/c3nc4ccccc4[nH]c3=O)C2=O)cc(OC)c1OC`, the EC50 was over 200 µM and the IC50 turned out to be 18.2 µM.

Consider `O=C(O)CC1C(=O)OC2C3COC(=O)c4cc(O)c(O)c(O)c4-c4c(cc(O)c(O)c4O)C(=O)OC2C(OC(=O)c2cc(O)c(O)c4c2C1C(O)C(=O)O4)C(OC(=O)c1cc(O)c(O)c(O)c1)O3` (configuration not stated), for which the EC50 was 3.31 µM and the IC50 turned out to be 18.6 µM.

For the molecule `C#CC1(O)CC[C@H]2[C@@H]3CCC4=CCCC[C@@H]4[C@H]3CC[C@@]21C` (some centres not stated), the EC50 was over 200 µM and the IC50 turned out to be 30.9 µM. Turning to `O=C1c2ccccc2C(=O)c2c1nc1sccn21`, the EC50 was over 200 µM and the IC50 was determined as 32.4 µM. Taken in the same sequence, the figures for `Brc1cccc(-c2nc3ccccc3[nH]2)c1` were over 132 µM and 87.1 µM. As to `CCC(C)C(NC(=O)C(CCCCN)NC(=O)CNC(=O)C(NC(=O)C(NC(=O)C(NC(=O)C(Cc1ccccc1)NC(=O)C(C)NC(=O)C(CCCNC(=N)N)NC(=O)CNC(=O)C1CCCN1C(=O)CNC(=O)C(CCCNC(=N)N)NC(=O)C(CCC(N)=O)NC(=O)C(NC(=O)C(CCCNC(=N)N)NC(=O)C(NC(=O)C(COC1OC(CO)C(O)C(O)C1NC(C)=O)NC(=O)C(CCCCN)NC(=O)C(CCCNC(=N)N)NC(=O)C(NC(=O)C(CC(N)=O)NC(=O)C(N)CC(N)=O)C(C)O)C(C)CC)C(C)CC)C(C)C)C(C)OC1OC(CO)C(O)C(O)C1NC(C)=O)C(C)CC)C(=O)NCOC#N` (configuration not stated), the EC50 was over 27.5 µM and the 50% inhibitory concentration (IC50) is over 27.5 µM. In the case of `CN(C)c1ccc2c(c1)-c1cc(N(C)C)ccc1C2=CC=C(C#N)C#N`, the EC50 was over 4.27 µM and the IC50 is over 4.27 µM. On to `CC1(C)OC(=O)C(Cc2ccccc2)(Cc2ccccc2)C(=O)O1`, for which the outcome was inactive. Consider `COc1ccc2c(c1)CCc1c-2n(CCN2CCOCC2)c2ccc(OC)cc12`, for which the EC50 was over 200 µM and the IC50 was found to be 166 µM. The like results for `Cc1cc2nc3n(c2cc1C)C(c1c(F)cccc1F)SC3` (configuration not stated) were, in that order, over 44.7 µM and 20.9 µM. The like results for `CCN(CC)c1cc2oc(=O)cc(C)c2cc1[N+](=O)[O-]` were, in that order, over 95.5 µM and 40.7 µM. Taken in the same sequence, the figures for `Brc1ccc(N=Nc2ccc3ccccc3n2)cc1` were over 93.3 µM and 91.2 µM. Consider `COc1cc(-c2nccc3cc(OC)c(OC)cc23)ccc1O`, for which the result was inactive. Take `CC(=O)OC(C)(C)/C=C/C(=O)[C@](C)(O)[C@H]1[C@H](O)C[C@@]2(C)[C@@H]3CC=C4[C@@H](C[C@H](O)C(=O)C4(C)C)[C@]3(C)C(=O)C[C@]12C`: the EC50 was over 0.2 µM and the IC50 was found to be 0.00955 µM. On to `O=C1C2Cc3ccccc3CN2C(=O)N1CN1CCN(CN2C(=O)C3Cc4ccccc4CN3C2=O)CC1` (configuration not stated), for which the EC50 is over 10 µM and the IC50 is over 10 µM. Turning to `COc1ccc(C(=O)/C=C/c2cc(C(C)(C)C)c(O)c(C(C)(C)C)c2)cc1`, the EC50 is over 7.41 µM and the IC50 is over 7.41 µM. `O=[N+]([O-])c1ccc(N=P(c2ccccc2)(c2ccccc2)c2ccccc2)n2nnnc12`: the result was inactive.

Regarding `C=CC1(CC)/C(=N\O)C(CC)(CC)C(=O)N1O` (configuration not stated), the EC50 is over 1050 µM and the half-inhibitory concentration (IC50) is over 1050 µM. Take `O=CC[C@H]1CCc2ccccc2C12CCC(=O)CC2`: the EC50 is over 74.1 µM and the IC50 is over 74.1 µM.

Consider `CN(C)c1ccc(/C=C/c2cc[n+]3cc(-c4ccccc4)sc3n2)cc1`, for which the EC50 was over 1.51 µM and the IC50 came out at 0.324 µM.

Turning to `COCCN(C(=O)c1ccccc1)C1CCC2(SCCS2)c2[nH]c3ccccc3c21` (configuration not stated), the EC50 is over 200 µM and the IC50 came out at 24 µM. Taken in the same sequence, the figures for `COc1ccccc1/C=C1\CCc2ccccc2C1=O` were over 27.5 µM and 15.5 µM.

In the case of `COC1=CC(=O)C(=O)c2c(C)ccnc21`, the outcome was inactive. In the case of `COC(=O)C(C)N(C)C(=O)[C@H](CC(N)=O)N(C)C(=O)[C@@H]1CCCN1C(=O)[C@H](C(C)C)N(C)C(=O)C(C(C)C)N(C)C(=O)[C@@H](NC(=O)OC(C)(C)C)C(C)C` (some centres not stated) (Boc-V[ξNMeV][NMeV]P[NMeN][ξNMeA]-OMe), the EC50 was over 324 µM and the concentration for half-maximal inhibition (IC50) is over 324 µM. Take `Cn1c2c3ccccc3nc-2cc2ccccc21`: the EC50 was over 174 µM and the IC50 was 0.316 µM.

With `C[C@H]1c2c([nH]c(=O)[nH]c2=O)O[C@@H]1c1ccccc1`, the EC50 was over 200 µM and the IC50 is over 200 µM. As for `CCOC(=O)C1=C(c2ccccc2)C12N(Cc1ccccc1)C(=O)C2(c1ccccc1)c1ccccc1` (configuration not stated), the EC50 is over 200 µM and the 50% inhibitory concentration (IC50) was 11 µM. Taken in the same sequence, the figures for `Cc1nc(Nc2nnc(-c3cc([N+](=O)[O-])cc([N+](=O)[O-])c3C)o2)sc1C(=O)CC(=O)Cc1nc2ccc(Cl)cc2[nH]c1=O` were over 57.5 µM and over 57.5 µM. As to `O=C(NCCCNCCN1C(=O)c2cccc3cc([N+](=O)[O-])cc(c23)C1=O)c1cc(-c2ccccc2)nc2ccccc12`, the EC50 was over 200 µM and the IC50 came to 1.05 µM. Taken in the same sequence, the figures for `Cc1ccc(S(=O)(=O)C2=c3nc4ccccc4cc3=C3C(=O)c4ccccc4C(=O)C32)cc1` (configuration not stated) were over 21.9 µM and over 21.9 µM.

In the case of `CCCC(C)(O)CN` (configuration not stated), the outcome was inactive. Take `CC(C)(C)n1c(=O)n(C(=O)C(Cl)(Cl)Cl)n(C(=O)C(Cl)(Cl)Cl)c1=O`: the EC50 was over 200 µM and the half-maximal inhibitory concentration (IC50) was over 200 µM. For `COP(=O)(N/N=C/C(=O)O)OC`, the EC50 was over 1260 µM and the IC50 is over 1260 µM. `Cc1n[nH]c(=O)n1/N=C\CC/C=N\n1c(C)n[nH]c1=O`: the EC50 was over 200 µM and the IC50 was over 200 µM.

For `COc1cc(-c2cc(CCC(=O)Nc3ccccc3[N+](=O)[O-])n(-c3ccc([N+](=O)[O-])cc3[N+](=O)[O-])n2)ccc1O`, the EC50 is over 47.9 µM and the IC50 was over 47.9 µM. Consider `[N-]=[N+]=NC1(N=[N+]=[N-])C(=O)NN=C(c2ccccc2)C1=O` (configuration not stated), for which the result was inactive. `CCCCN=C(NCCCC)OC1CCCCC1`: the EC50 is over 200 µM and the IC50 worked out at 64.6 µM.

As for `CCOc1ccc(-c2oc(/C=N/NS(=O)(=O)c3ccc(C)cc3)c([N+](=O)[O-])c2-c2ccc(OCC)cc2)cc1`, the EC50 is over 3.63 µM and the IC50 is over 3.63 µM.

As to `CC(C)(C)C1CCC(O)(c2ccccc2)CC1` (configuration not stated), the EC50 was over 42.7 µM and the IC50 is over 42.7 µM.

For the molecule `COc1ccc2c(c1)-c1c(c3cc(OC)ccc3n1CCN1CCOCC1)CC2`, the outcome was inactive.

For `Cn1c(=O)[nH]c2c(c1=O)CCCS2`, the EC50 is over 251 µM and the IC50 was over 251 µM. For the molecule `COc1cc2c(cc1OC)C1CC3(CC4c5cc(OC)c(OC)cc5CCN4CC3CO)C(CO)CN1CC2` (configuration not stated), the outcome was inactive.

As for `CC(CO)CCNc1ncnc2c1ncn2CCC(=O)OC(C)(C)C` (configuration not stated), the EC50 was over 200 µM and the half-inhibitory concentration (IC50) is over 200 µM. As for `COC(=O)C(Cn1cnc2c(Cl)nc(N)nc21)P(=O)(OC)OC` (configuration not stated), the EC50 is over 692 µM and the IC50 was 37.2 µM. Take `CC(=O)N(C(=O)CC(=O)N/N=C\c1ccc(Br)c(N(CCC#N)CCC#N)c1)c1ccc(Cl)cc1`: the EC50 was over 200 µM and the IC50 is over 200 µM.
